The values below come from patent US7030096B1, “Method of enhancing relaxation of penile smooth muscle by introduction of DNA encoding maxi-K potassium channel protein” (Albert Einstein College of Medicine of Yeshiva University, priority 1997, dated 2006).

For one assay, the system named is KATP channel. The settings on record: Table 4; cited from earlier work.
In the next assay the test system is corporal smooth muscle. The settings on record: cited from earlier work.
Another assay relates to L-type Ca^2+ channel. Conditions: cited from earlier work.
Assay [1] deals with isolated human corporal tissue strips. The format is cell-based.
Assay [2] shares this test system. The settings on record: cited from earlier work.
Assay [3] addresses T1, maxi-K channel (Homo sapiens, UniProt Q12791). It is filed as cell-based.
For the next assay, the target named is KCa channel (Homo sapiens, UniProt Q12791). The settings on record: Table 4; cited from earlier work.
KCa channel, sequence (Q12791 whole entry): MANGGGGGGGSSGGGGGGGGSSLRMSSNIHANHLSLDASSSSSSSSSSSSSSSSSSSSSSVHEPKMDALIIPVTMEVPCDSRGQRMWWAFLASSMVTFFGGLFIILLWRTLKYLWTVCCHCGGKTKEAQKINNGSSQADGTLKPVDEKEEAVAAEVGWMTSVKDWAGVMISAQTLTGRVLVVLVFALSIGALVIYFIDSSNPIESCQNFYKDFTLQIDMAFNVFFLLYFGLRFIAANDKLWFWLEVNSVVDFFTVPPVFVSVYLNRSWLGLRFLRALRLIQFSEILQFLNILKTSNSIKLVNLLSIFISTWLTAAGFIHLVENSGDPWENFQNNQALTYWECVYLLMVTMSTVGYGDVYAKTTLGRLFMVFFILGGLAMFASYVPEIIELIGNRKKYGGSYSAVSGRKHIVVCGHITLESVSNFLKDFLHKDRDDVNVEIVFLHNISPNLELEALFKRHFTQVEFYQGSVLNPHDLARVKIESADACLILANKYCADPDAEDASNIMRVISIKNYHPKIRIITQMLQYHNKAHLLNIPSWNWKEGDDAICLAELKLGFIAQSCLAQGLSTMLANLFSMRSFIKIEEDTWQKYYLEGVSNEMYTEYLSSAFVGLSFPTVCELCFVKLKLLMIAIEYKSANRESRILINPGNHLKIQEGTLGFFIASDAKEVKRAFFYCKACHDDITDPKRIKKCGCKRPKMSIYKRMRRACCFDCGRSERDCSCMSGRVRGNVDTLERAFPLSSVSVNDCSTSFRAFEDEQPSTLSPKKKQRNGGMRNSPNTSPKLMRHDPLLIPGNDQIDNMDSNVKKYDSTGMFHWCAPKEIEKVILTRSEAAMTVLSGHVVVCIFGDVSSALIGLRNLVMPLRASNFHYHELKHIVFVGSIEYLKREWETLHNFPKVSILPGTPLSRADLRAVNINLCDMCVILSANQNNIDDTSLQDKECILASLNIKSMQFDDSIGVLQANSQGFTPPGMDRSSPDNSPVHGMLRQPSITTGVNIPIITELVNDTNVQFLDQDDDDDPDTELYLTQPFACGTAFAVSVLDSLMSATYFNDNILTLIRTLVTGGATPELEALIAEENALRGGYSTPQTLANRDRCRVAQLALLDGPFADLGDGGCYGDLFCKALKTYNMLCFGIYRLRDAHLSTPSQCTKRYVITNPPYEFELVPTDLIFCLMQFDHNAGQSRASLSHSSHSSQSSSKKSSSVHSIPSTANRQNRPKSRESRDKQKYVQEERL
Assay [4] addresses T1, maxi-K channel. The settings on record: all four recording modes; cited from earlier work.
Assay [5] concerns cultured human corporal smooth muscle cells. Nature of the assay: Resting and ET-1-induced intracellular calcium in fura-2-loaded cultured cells. The format is cell-based. The settings on record: transfection with hSlo cDNA or preincubation with PGE1 (500 nM). The method, then:
Urol., 155:[…], 1996). This decrease is indistinguishable from the decrease seen in the absence of extracellular Ca^2+ (in 2 mM EGTA), or when cells are preincubated with either nifedipine (Zhao and Christ, J. Urol., 154:1571-79, 1995) or verapamil, both of which are blockers of the L-type voltage-dependent calcium channel. [table]
Background: A change in cytosolic calcium serves as a functional read-out for many receptors and channels.

Assay [6] shares this test system. Conditions: preincubation with 500 nM PGE1, cited from earlier work.
The subject of another assay is monkeys and humans. Conditions: cited from earlier work.
For assay [7], the system named is precontracted corporal tissue strips. Conditions: from both animals and humans; cited from earlier work.

Like-named read-outs stand apart in the source and are kept apart here. Where no end group is shown, it is not given here.

T1 sequence (Q12791 whole entry): as above

Take `COc1ccc(Cl)cc1C(=O)NCCc1ccc(S(=O)(=O)NC(=O)NC2CCCCC2)cc1` [Glibenclamide, glibenclamide]: the “Channel Type Affected: KATP” value with KATP channel is “KATP decreases”. Moreover, the “Effect on Smooth Muscle Tone” value in the assay on corporal smooth muscle (Table 4) is recorded as “increased tone”.

As for `[Cl-].[K+]` [KCl], in the assay on KATP channel, the “Channel Type Affected: KATP” value was “KATP increases”. The “Effect on Smooth Muscle Tone” value in the assay on corporal smooth muscle (Table 4) was “modulates increase”.

`O=[N+]([O-])OCC(CO[N+](=O)[O-])O[N+](=O)[O-]` [NTG, nitroglycerine]: the “Channel Type Affected: L-type Ca^2+” value in the assay with L-type Ca^2+ channel is “decreases”. The “percent relaxation response elicited by 100 nM nitroglycerine” value in assay [1] was 20.3%±3.2. Further, the “expected percent relaxation response elicited by 100 nM nitroglycerine” value in [2] is listed as 50.1%. Moreover, the “Effect on Smooth Muscle Tone” value in the assay on corporal smooth muscle is “decreased tone”. In addition, at maxi-K channel [3], the Channel activity increased result is given as “YES” and the “maxi-K channel activity (attached patch recording mode)” value was “increase in maxi-K channel activity”.

With `CNC[C@H](O)c1cccc(O)c1` [PE, phenylephrine], the “Channel Type Affected: KCa” value at KCa channel is listed as “KCa increases”. The “Effect on Smooth Muscle Tone” value in the assay with corporal smooth muscle (Table 4) is “modulates increase”.

Turning to `CCCCC[C@H](O)/C=C/[C@H]1[C@H](O)CC(=O)[C@@H]1CCCCCCC(=O)O` [PGE1, prostaglandin E1], on maxi-K channel [4], the “activity of the maxi-K channel” value is on record as “concentration-dependent increase”. In [5], the “ET-1-induced calcium response decreased” value is listed as “YES”. In addition, the “Channel Type Affected: KCa” value at KCa channel is “KCa increases”. In addition, the “Effect on Smooth Muscle Tone” value in the assay with corporal smooth muscle (Table 4) is reported as “decreased tone”. For the same compound, in assay [6], the “decrease in peak amplitude of the ET-1-induced (50 nM) calcium transient” value was “≈ 40%”. In [6] (control value 161.5±19.5 nM), the “peak amplitude of the ET-1-induced (50 nM) calcium transient above baseline” value is 102.6 ± 9.5 nM. Besides, the Channel activity increased result on maxi-K channel [3] (100 μM NTG or 30 nM–30 μM PGE1) was “YES”.

Consider `CC[N+](CC)(CC)CC` [TEA, tetraethylammonium], for which, in assay [1], the PE-induced contraction increased result was “YES”, the Relaxation response decreased result is “YES”, the “Resting corporal smooth muscle tone increased” value was “YES” and the “effect on NTG-induced relaxation response (100 nM)” value is “significant attenuation”. For the same compound, the “Channel Type Affected: KCa” value at KCa channel was “KCa decreases”. Besides, in the assay on corporal smooth muscle, the “Effect on Smooth Muscle Tone” value is “increased tone”.

Regarding `CC1(C)Oc2ccc(C#N)cc2C(N2CCCC2=O)C1O` (stereo not shown) [cromakalim], the “effect when injected intracavernosally” value in the assay with monkeys and humans is “elicit an erection”. Moreover, the “effect on precontracted corporal tissue strips” value in assay [7] is listed as “relax”.

With `CC1(C)Oc2ccc(C#N)cc2[C@@H](N2CCCC2=O)[C@@H]1O` [lemakalim], in the assay on monkeys and humans, the “effect when injected intracavernosally” value is given as “elicit an erection”. Moreover, in assay [7], the “effect on precontracted corporal tissue strips” value is “relax”.

In the case of `O=C(NCCO[N+](=O)[O-])c1cccnc1` [nicorandil], the “effect when injected intracavernosally” value with monkeys and humans is reported as “elicit an erection”. For the same compound, the “effect on precontracted corporal tissue strips” value in assay [7] is given as “relax”.

Consider `CC(N/C(=N\C#N)Nc1ccncc1)C(C)(C)C` (stereo not shown) [pinacidil], for which the “effect when injected intracavernosally” value with monkeys and humans is listed as “elicit an erection”. For the same compound, the “Channel Type Affected: KATP” value in the assay on KATP channel is on record as “KATP increases”. In assay [7], the “effect on precontracted corporal tissue strips” value is reported as “relax”. For the same compound, the “Effect on Smooth Muscle Tone” value in the assay with corporal smooth muscle (Table 4) is “decreased tone”.

Turning to “endothelin-1 (CSCSSLMDKECVYFCHLDIIW; ends and bridges not checked; cysteine pairing not given here; UniProt P05305 53-73, looked up) [ET-1]”, the “Channel Type Affected: L-type Ca^2+” value in the assay with L-type Ca^2+ channel (Table 4) was “increases”. Moreover, in the assay with corporal smooth muscle (Table 4), the “Effect on Smooth Muscle Tone” value is given as “increased tone”.
